Laboratory results taken from paper PMC9105102, “Development and Biochemical Characterization of Self-Immolative Linker Containing GnRH-III-Drug Conjugates” (International Journal of Molecular Sciences, 2022).

What was measured:
[1] = system: A2780 human ovarian cancer cells; test: cells; type: cell-based; conditions: A2780 cells; treatment 24 h (Dau conjugates) or 6 h (PTX compounds), viability at 72 h; mean ± SE of two to three determinations; read-out: A2780 IC50
Method: (§1) For cultivation of A2780 human ovarian and Panc-1 human pancreatic cancer cells, RPMI-1640 medium with 10% FBS, L-glutamine and 1% Penicillin-Streptomycin were used. Cells were cultured in appropriate plastic flasks at 37 °C (humidified atmosphere, 5% CO2/95% air).
(§2) A set-up of 96-well plates was used to study the in vitro antiproliferative activity. Therefore, 5 × 10^3 cells in 100 µL complete medium were seeded to each well. After 24 h, complete medium was removed and cells were treated with 200 µL bioconjugate solution in serum-free medium (concentration range 0.0032–50 µM, control wells were treated with serum-free medium). Medium was taken out after 6 h treatment (PTX conjugates) or 24 h (Dau conjugates), replaced by complete medium and incubation was continued. To determine the cell viability, medium was removed after 72 h and 100 µL resazurin solution [45] (10% Tox-8 in FBS-free medium) was added to each well, followed by additional incubation of 2–3 h. A Tecan infinite 200 pro microplate reader (Tecan Group Ltd., Zürich, Switzerland) was used for fluorescence detection (λEx = 560 and λEm = 590 nm). Experiments were performed at least twice, using three parallels per concentration. The cell viability (and IC50 values) was calculated with GraphPad Prism using a nonlinear regression (sigmoidal dose-response).

[2] = system: Panc-1 human pancreatic cancer cells; test: cells; type: cell-based; conditions: Panc-1 cells; treatment 24 h (Dau conjugates) or 6 h (PTX compounds), viability at 72 h; mean ± SE of two to three determinations; read-out: Panc-1 IC50
Method: as §1, §2

[3] = Degradation of drug conjugates in presence of rat liver lysosomal homogenate (LC-MS); type: in vitro ADME; conditions: pH 5, 37 °C, up to 24 h, LC-MS
Method: The preparation of the rat liver lysosomal homogenate was carried out as recently reported. A Qubit Protein Assay Kit (Thermo Fischer Scientific, Waltham, MA, USA) was used to examine the concentration of the lysosomal proteins.
Initially, a stock solution of the GnRH-III-Dau conjugates in water (5 µg/µL) was prepared. For the degradation reaction, the conjugates and the lysosomal homogenate were diluted together in 0.2 M NaOAc buffer (pH 5) to a concentration of 0.25 µg/µL each. These mixtures were kept at 37 °C and at distinct time points (5 min, 1 h, 2 h, 4 h, 8 h and 24 h), 15 µL of each sample were quenched with 2 µL acetic acid and analyzed by LC-MS (System I).
The GnRH-III-PTX conjugates were dissolved in DMSO to a concentration of 10 mM. The reaction was carried out in 0.2 M NaOAc buffer (pH 5) with 10 µM conjugate and 0.025 µg/mL lysosomal homogenate. The reaction mixtures were incubated at 37 °C and aliquots of 60 μL were taken at 5 min, 1 h, 2 h, 4 h, 8 h and 24 h and quenched with 5 μL of acetic acid. The analysis of the samples was performed by LC–MS (System-II).

[4] = biological target: T1, GnRH-R (membranes of human pituitary) (Homo sapiens, UniProt P30968); test: Radioligand competition assay, displacement of [125I]-GnRH-I-[6D-Trp] (triptorelin), human pituitary membranes; type: binding
T1 construct: GnRH-Rs expressed on human pituitary and human prostate cancer cells; from tissue; host or cells: normal human pituitary (anterior lobe), autopsy; membrane homogenate
T1 sequence (P30968 1-328): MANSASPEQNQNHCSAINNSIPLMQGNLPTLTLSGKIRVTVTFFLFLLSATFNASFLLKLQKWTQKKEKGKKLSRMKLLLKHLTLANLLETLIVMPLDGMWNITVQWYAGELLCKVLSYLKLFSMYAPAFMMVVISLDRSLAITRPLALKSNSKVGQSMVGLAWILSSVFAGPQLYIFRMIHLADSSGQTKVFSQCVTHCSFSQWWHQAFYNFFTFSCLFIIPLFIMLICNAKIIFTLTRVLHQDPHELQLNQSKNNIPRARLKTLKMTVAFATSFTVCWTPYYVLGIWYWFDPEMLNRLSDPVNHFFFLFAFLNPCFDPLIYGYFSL
Method: (§3) A ligand competition assay with [^125I]-GnRH-I-[^6D-Trp] as radioligand was performed to examine the binding affinity of the GnRH-III-drug conjugates to GnRH-Rs expressed on human pituitary and human prostate cancer cells. Human prostate cancer cells were derived from patients at the time of initial surgical treatment, while tissue samples from normal human pituitary (anterior lobe) were obtained by autopsy. All subjects were informed and gave their consent for inclusion before they participated in the study. The preparation of the cell membranes was carried out according to the literature. The chloramines-T method was used to prepare radioiodinated GnRH-I agonist triptorelin which was purified by RP-HPLC [10, 38, 39, 47]. The displacement of [^125I]-GnRH-I-[^6D-Trp] was studied in an in vitro ligand competition assay to determine the binding affinities of the non-radio-labeled GnRH-III bioconjugates to GnRH-RI [10, 11, 38, 39]. Membrane homogenates containing […] protein were incubated in duplicate or triplicate with 60–80,000 cpm [^125I]-GnRH-I-[^6D-Trp] and rising concentration (1 pM—1 µM) of nonradioactive bioconjugates as competitors in a total volume of […] binding buffer. Protein concentration was determined by the method of Bradford using a Bio-Rad protein assay kit (Bio-Rad Laboratories, Hercules, CA, USA). The LIGAND-PC computerized curve-fitting program of Munson and Rodbard was used to determine the receptor binding characteristics and IC50 values.

[5] = biological target: T2, GnRH-R (membranes of human prostate cancer specimens) (Homo sapiens, UniProt P30968); test: Radioligand competition assay, displacement of [125I]-GnRH-I-[6D-Trp] (triptorelin), human prostate cancer membranes; conditions: mean ± SE of two to three determinations, read-out: IC50 Prostate Cancer, competitive inhibition of [125I][6D-Trp]-GnRH-I binding
T2 construct: GnRH-Rs expressed on human pituitary and human prostate cancer cells; from tissue; host or cells: human prostate cancer specimens from patients (surgery); membrane homogenate
T2 sequence (P30968 1-328): T1 sequence (P30968 1-328)
Method: as §3

[6] = Solubility in acidic aqueous buffer (remark); type: physicochemical; conditions: compared with the ΔHis-D-Tic compounds

Compound	IC50 [1] [µM]	IC50 [2] [µM]	release of free Dau by lysosomal enzymes [3]	IC50 [4] [µM]	IC50 [5] [µM]	solubility in acidic aqueous buffer [6]
CCCC(=O)NCCCC[C@H](NC(=O)[C@H](Cc1c[nH]c2ccccc12)NC(=O)[C@H](Cc1c[nH]cn1)NC(=O)[C@@H]1CCC(=O)N1)C(=O)N[C@@H](Cc1c[nH]cn1)C(=O)N[C@@H](CC(=O)O)C(=O)N[C@@H](Cc1c[nH]c2ccccc12)C(=O)N[C@@H](CCCCNC(=O)CCCC(=O)N[C@H](C(=O)N[C@@H](CCCNC(N)=O)C(=O)Nc1ccc(COC(=O)N[C@H]2C[C@H](O[C@H]3C[C@](O)(C(C)=O)Cc4c(O)c5c(c(O)c43)C(=O)c3c(OC)cccc3C5=O)O[C@@H](C)[C@H]2O)cc1)C(C)C)C(=O)N1CCC[C@H]1C(=O)NCC(N)=O [compound 10]	11.2 ± 0.38	85.6 ± 24.3	release of free Dau and the formation of several peptide fragments could be confirmed	0.0161 ± 0.00203	0.0137 ± 0.00187	better solubility
CCCC(=O)NCCCC[C@H](NC(=O)[C@H](Cc1c[nH]c2ccccc12)NC(=O)[C@H](Cc1c[nH]cn1)NC(=O)[C@@H]1CCC(=O)N1)C(=O)N[C@@H](Cc1c[nH]cn1)C(=O)N[C@@H](CC(=O)O)C(=O)N[C@@H](Cc1c[nH]c2ccccc12)C(=O)N[C@@H](CCCCNC(=O)CCCC(=O)N[C@H](C(=O)N[C@@H](C)C(=O)Nc1ccc(COC(=O)N[C@H]2C[C@H](O[C@H]3C[C@](O)(C(C)=O)Cc4c(O)c5c(c(O)c43)C(=O)c3c(OC)cccc3C5=O)O[C@@H](C)[C@H]2O)cc1)C(C)C)C(=O)N1CCC[C@H]1C(=O)NCC(N)=O [compound 12]	7.48 ± 0.66	56.2 ± 17.3	release of free Dau and the formation of several peptide fragments could be confirmed	0.017 ± 0.00104	0.0155 ± 0.00083	better solubility
